ChEMBL document CHEMBL1201862, “PubChem BioAssay data set” (2004)
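Grown in 96-well plates, cells were treated for 48 hours with each compound at five concentrations. Insufficient inhibition: endpoint recorded as highest concentration tested. GI50 marks 50% less growth.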 Calls of active or inactive are those of the source. Rule as the data show it: active = GI50 up to about 1.1 µM and inactive = higher.

Columns and labels:
Test in all cases: NCI-60 cell line screen, 48 h
DMS-114 = system: DMS-114
M19-MEL = system: M19-MEL
KM-20L2 = system: KM-20L2
HOP-18 = system: HOP-18
XF498 = system: XF498
LXFL 529 = system: LXFL 529
DLD-1 = system: DLD-1
DMS-273 = system: DMS-273
RXF 631 = system: RXF 631

| SMILES | GI50 (DMS-114) | GI50 (M19-MEL) | GI50 (KM-20L2) | GI50 (HOP-18) | GI50 (XF498) | GI50 (LXFL 529) | GI50 (DLD-1) | GI50 (DMS-273) | GI50 (RXF 631) |
| --- | --- | --- | --- | --- | --- | --- | --- | --- | --- |
| CCN1C[C@]2(C)CC[C@H](OC)C34C1C([C@H](OC(C)=O)[C@@H]32)[C@@]1(OC)C[C@H](OC)[C@H]2C[C@@H]4[C@@H]1[C@H]2O | 82.4 µM (inactive) | > 100 µM (inactive) | > 100 µM (inactive) | > 100 µM (inactive) | > 100 µM (inactive) | > 100 µM (inactive) | > 100 µM (inactive) | > 100 µM (inactive) | – |
| O=C(O)/C(Cl)=C(Cl)/C=N/NC(=O)c1cc2ccccc2cc1O | 17.3 µM (inactive) | 17.9 µM (inactive) | 28.8 µM (inactive) | 13.5 µM (inactive) | 35.4 µM (inactive) | 21.6 µM (inactive) | 7.69 µM (inactive) | 6.84 µM (inactive) | 26.4 µM (inactive) |
| COc1nc2c(c(O)c(C)c(=O)n2OC2OC(COC(C)=O)C(OC(C)=O)C(OC(C)=O)C2OC(C)=O)c(=O)n1C (centres undefined) | > 100 µM (inactive) | > 100 µM (inactive) | > 100 µM (inactive) | – | > 100 µM (inactive) | > 100 µM (inactive) | > 100 µM (inactive) | > 100 µM (inactive) | > 100 µM (inactive) |
| CC(=O)OC1CC2(C)OC(Cc3ccccc32)O1 (centres undefined) | > 100 µM (inactive) | > 100 µM (inactive) | > 100 µM (inactive) | > 100 µM (inactive) | > 100 µM (inactive) | – | > 100 µM (inactive) | > 100 µM (inactive) | – |
| O=C(c1ccccc1)c1c(CNCc2ccccc2)n(C(=O)c2ccccc2)c2ccccc12 | 21.2 µM (inactive) | 92.3 µM (inactive) | 40 µM (inactive) | – | > 100 µM (inactive) | 30.4 µM (inactive) | 35.4 µM (inactive) | 47.1 µM (inactive) | – |
| COc1cc2c(c(OC)c1OC)-c1ccc(SC)c(=O)cc1[C@@H](NCc1ccc([N+](=O)[O-])cc1)CC2 | 0.00253 µM (active) | 0.00379 µM (active) | 0.00158 µM (active) | – | 0.00899 µM (active) | 0.00635 µM (active) | 0.00402 µM (active) | 0.00288 µM (active) | – |
| C/C=C/C#CC#C/C=C/C=C/C(O)CCO (centres undefined) | > 23.1 µM (inactive) | > 23.1 µM (inactive) | > 23.1 µM (inactive) | > 23.1 µM (inactive) | > 23.1 µM (inactive) | > 23.1 µM (inactive) | > 23.1 µM (inactive) | > 23.1 µM (inactive) | – |
| Cc1ccc(S(=O)(=O)C(CC(NC=O)S(=O)(=O)c2ccc(C)cc2)NC=O)cc1 (centres undefined) | > 100 µM (inactive) | > 100 µM (inactive) | > 100 µM (inactive) | – | > 100 µM (inactive) | > 100 µM (inactive) | > 100 µM (inactive) | > 100 µM (inactive) | > 100 µM (inactive) |
| Cc1ccccc1N(CCC#N)C1=NN(C(=O)CC(=O)Nc2ccccc2)C(c2ccccc2)C1 (centres undefined) | – | > 100 µM (inactive) | > 100 µM (inactive) | > 100 µM (inactive) | – | > 100 µM (inactive) | > 100 µM (inactive) | > 100 µM (inactive) | > 100 µM (inactive) |
| c1ccc2cc(C3NCCc4nc[nH]c43)ccc2c1 (centres undefined) | 35.6 µM (inactive) | 29.9 µM (inactive) | 42.7 µM (inactive) | 47 µM (inactive) | – | 54.2 µM (inactive) | 62.2 µM (inactive) | 69.2 µM (inactive) | – |
| N=C(N)NCCCCCCC(=O)NC(O)C(=O)NCCCCNCCCN (centres undefined) | 69.2 µM (inactive) | 719 µM (inactive) | 600 µM (inactive) | 710 µM (inactive) | 100 µM (inactive) | – | 723 µM (inactive) | > 750 µM (inactive) | – |
| COc1ccc(N2C(=O)C3CC(c4ccc(C)cc4)c4c([nH]c5ccccc45)C3C2=O)cc1 (centres undefined) | > 49.7 µM (inactive) | > 75.9 µM (inactive) | 10.9 µM (inactive) | 2.88 µM (inactive) | 27.2 µM (inactive) | 28.7 µM (inactive) | 38.6 µM (inactive) | 24.1 µM (inactive) | – |
| COc1c(O)ccc(/C=N/NC(=S)NCOCCOC(C)=O)c1OC | > 100 µM (inactive) | > 100 µM (inactive) | > 100 µM (inactive) | > 100 µM (inactive) | > 100 µM (inactive) | > 100 µM (inactive) | > 100 µM (inactive) | > 100 µM (inactive) | > 100 µM (inactive) |
| CCCCCCCCCCCCCCCC(=O)Nc1ccn(C2OC(CO)C(O)C2O)c(=O)n1 (centres undefined) | 4.89 µM (inactive) | 13.1 µM (inactive) | 40.3 µM (inactive) | 21.4 µM (inactive) | – | 39.5 µM (inactive) | > 54.7 µM (inactive) | 5.66 µM (inactive) | – |
| CCCCOC(=O)C1C(c2ccc(Cl)cc2)NC(c2ccc(Cl)cc2)C(C(=O)OCCCC)S1(=O)=O (centres undefined) | > 100 µM (inactive) | > 100 µM (inactive) | > 100 µM (inactive) | > 100 µM (inactive) | > 100 µM (inactive) | 69.8 µM (inactive) | > 100 µM (inactive) | > 100 µM (inactive) | – |
| CCc1ccccc1NC(=O)C1=C(C)NC(C)=C(C(=O)Nc2c(CC)cccc2CC)C1c1ccc2c(c1)OCO2 (centres undefined) | 20.2 µM (inactive) | 22.1 µM (inactive) | 17.6 µM (inactive) | – | 28.4 µM (inactive) | 17 µM (inactive) | 21.9 µM (inactive) | – | – |
| Cc1ccc(/C=C2\CCCC(C(NO)c3ccc(C)cc3)C2=NO)cc1 (centres undefined) | 30.3 µM (inactive) | 69.5 µM (inactive) | 21.7 µM (inactive) | 11.4 µM (inactive) | 43.7 µM (inactive) | 61.7 µM (inactive) | 28 µM (inactive) | 42 µM (inactive) | 27.4 µM (inactive) |
| CC12CC(Br)(Br)C(=O)C3C1CCCC32 | 6.3 µM (inactive) | 8.34 µM (inactive) | 17.4 µM (inactive) | 9.89 µM (inactive) | 8.73 µM (inactive) | 2.38 µM (inactive) | 4.63 µM (inactive) | 6.58 µM (inactive) | – |
| Cc1cc2c(C)nn(Cc3ccccc3Cl)c2c(C#N)c1C | – | > 100 µM (inactive) | > 100 µM (inactive) | > 100 µM (inactive) | > 100 µM (inactive) | > 100 µM (inactive) | > 100 µM (inactive) | > 100 µM (inactive) | > 100 µM (inactive) |
| CN1NC2(CCCCC2)ON=C1c1ccccc1 | > 100 µM (inactive) | – | > 100 µM (inactive) | > 100 µM (inactive) | – | – | > 100 µM (inactive) | – | – |
| Cc1ccccc1C1OC(=O)c2ccccc21 (centres undefined) | > 100 µM (inactive) | > 100 µM (inactive) | > 100 µM (inactive) | > 100 µM (inactive) | – | > 100 µM (inactive) | > 100 µM (inactive) | > 100 µM (inactive) | > 100 µM (inactive) |
| C=CCNC(=S)NNC(=O)c1c(C)nc2sccn12 | > 100 µM (inactive) | > 100 µM (inactive) | > 100 µM (inactive) | > 100 µM (inactive) | > 100 µM (inactive) | > 100 µM (inactive) | > 100 µM (inactive) | > 100 µM (inactive) | > 100 µM (inactive) |
| C=C(C)[C@@H]1CC[C@]2(C)CC[C@]3(C)[C@H](CC[C@@H]4[C@@]5(C)CC[C@H](O)C(C)(C)[C@@H]5CC[C@]43C)[C@@H]12 [LUPEOL] | 65.8 µM (inactive) | > 100 µM (inactive) | > 100 µM (inactive) | – | > 100 µM (inactive) | > 100 µM (inactive) | > 100 µM (inactive) | > 100 µM (inactive) | – |
| CSc1nnc(C(C#N)C#N)nn1 | > 100 µM (inactive) | > 100 µM (inactive) | > 100 µM (inactive) | – | > 100 µM (inactive) | > 100 µM (inactive) | > 100 µM (inactive) | > 100 µM (inactive) | > 100 µM (inactive) |
| N=C1OC(c2ccc3c(c2)OCO3)C(NNS(=O)(=O)c2ccccc2)=C1O (centres undefined) | > 100 µM (inactive) | 30.4 µM (inactive) | > 100 µM (inactive) | > 100 µM (inactive) | – | 58.2 µM (inactive) | > 100 µM (inactive) | > 100 µM (inactive) | – |
| CCOC1=C2N=C(C(CC)c3ccccc3F)N=C2C(=O)c2ccccc21 (centres undefined) | > 100 µM (inactive) | > 100 µM (inactive) | > 100 µM (inactive) | – | – | > 100 µM (inactive) | – | > 100 µM (inactive) | > 100 µM (inactive) |
| COc1cc2oc(-c3ccccc3)cc(=O)c2c(O)c1C | > 100 µM (inactive) | > 100 µM (inactive) | > 100 µM (inactive) | – | – | > 100 µM (inactive) | > 100 µM (inactive) | > 100 µM (inactive) | – |
| NNC(=O)N/N=C1\C(=O)N(c2ccc(Cl)c(Cl)c2)C(=O)C(=O)C1c1nc2ccccc2s1 (centres undefined) | > 100 µM (inactive) | – | > 100 µM (inactive) | > 100 µM (inactive) | > 100 µM (inactive) | > 100 µM (inactive) | > 100 µM (inactive) | > 100 µM (inactive) | – |
| CCOC(C/N=c1/nc(N(C)C)ss1)OCC | 18 µM (inactive) | 0.504 µM (active) | 27.7 µM (inactive) | > 66.4 µM (inactive) | 15 µM (inactive) | 0.489 µM (active) | 16.4 µM (inactive) | 23 µM (inactive) | 18.4 µM (inactive) |
| NCC(NC(=O)OCc1ccccc1)C(=O)O (centres undefined) | > 50 µM (inactive) | > 50 µM (inactive) | > 50 µM (inactive) | > 50 µM (inactive) | – | > 50 µM (inactive) | > 50 µM (inactive) | > 50 µM (inactive) | – |
